Consider two molecules from ChEMBL document CHEMBL3779821, “On the enthalpic preference of fragment binding” (Medchemcomm, 2016).

pKd: −log10 of the molar value.

In this assay the target is Macrophage metalloelastase (Homo sapiens, UniProt P39900). The assay can be described thus: Binding affinity to MMP12 (unknown origin).
Chain of Macrophage metalloelastase (P39900 whole entry): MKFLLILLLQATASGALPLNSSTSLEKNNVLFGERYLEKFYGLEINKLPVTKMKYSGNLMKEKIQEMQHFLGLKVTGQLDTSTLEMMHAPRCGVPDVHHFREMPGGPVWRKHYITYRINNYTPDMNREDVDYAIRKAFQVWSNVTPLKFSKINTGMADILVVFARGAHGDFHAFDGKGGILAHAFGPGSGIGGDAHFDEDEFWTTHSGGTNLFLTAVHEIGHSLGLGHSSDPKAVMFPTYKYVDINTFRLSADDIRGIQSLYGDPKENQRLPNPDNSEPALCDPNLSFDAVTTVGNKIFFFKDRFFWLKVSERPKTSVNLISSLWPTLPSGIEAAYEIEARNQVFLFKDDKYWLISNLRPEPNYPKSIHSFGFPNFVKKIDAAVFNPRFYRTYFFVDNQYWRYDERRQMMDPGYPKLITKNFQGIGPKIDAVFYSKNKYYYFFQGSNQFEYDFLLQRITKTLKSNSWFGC

Broadly, the pKd is −log10 of the Kd, conventionally taken in molar units. A lower pKd goes with a high Kd. Turning to `O=C(CNS(=O)(=O)c1ccccc1)NO`, the pKd is 7.21. The result for `CC(=O)NO` [ACETOHYDROXAMIC ACID] reads 2.21.
